In patent US20220409620A1, “REDUCING IMMUNOGENICITY TO PEGLOTICASE” (Horizon Pharma Rheumatology LLC, priority 2016, published 2022):
Where two headings read alike, the source gives them in different places.

Assays:
[1] = test system: adult patients with uncontrolled gout; test: Patient and physician global assessment of gout, open-label study; type: in vivo, human; settings: Methotrexate Baseline, mITT Population
Text: Patient Global Assessment: The patient global assessment was collected at the Screening and Week −4 (prior to the first dose of MTX) Visits during the MTX Run-in Period; prior to KXX infusion at the Day 1 and Weeks 14, 24 and 36 Visits during the KXX+MTX Period; at the End of Pegloticase Infusions Visit (if applicable); the Week 52/End of Study/Early Termination Visit and the Post Treatment Periods 3 and 6 Month Follow-up Visits.
Physician Global Assessment: The physician global assessment was collected at the Screening and Week −4 or week −6 (prior to the first dose of MTX) Visits during the MTX Run-in Period for the open-label and randomized studies, respectively; prior to pegloticase infusion at the Day 1 and Weeks 14, 24 and 36 Visits, and the Day 1 and week 6, 14, 20, 24, 30, 36, and 44 visits during the Pegloticase+IMM Period for the open-label and randomized studies, respectively; at the End of Pegloticase Infusions Visit (if applicable), the Week 52/End of Study/Early Termination Visit and the Post Treatment Periods 3 and 6 Month Follow-up Visits (open-label study).

[2] = Pegloticase serum concentrations (Cmax, Cmin), enzymatic/fluorescence assay, MIRROR OL; type: in vivo, human; settings: with MTX Co-Treatment
Text: Pharmacokinetic and Anti-drug Antibody Measurements: Serum samples for PK analysis of pegloticase were collected prior to the pegloticase infusion and after the end of infusion (prior to discharge) on Day 1 and at the Weeks 2, 4, 6, 8 and 36 Visits or weeks 2, 6, 14, 24, 36, for the open-label and randomized studies, respectively, and prior to the pegloticase infusion only at the Weeks 10, 14, 18, 22, 24 (open-label study); at the End of Pegloticase Infusions Visit (if applicable); and the Week 52/End of Study/Early Termination Visits. Visits for frequent sampling of a subset of subjects who consent for additional non-infusion visit PK sampling occurred at Weeks 1 and 7 or at week 21 for the open-label and randomized studies, respectively.
An enzymatic/fluorescence assay was used to quantitate pegloticase concentrations in serum. In the assay, pegloticase catalyzes the conversion of UA to allantoin, thus releasing hydrogen peroxide (H2O2) and carbon dioxide. In the presence of horseradish peroxidase, H2O2 reacts with a 1:1 stoichiometry with Amplex Ultra Red (Molecular Probes, Inc., Eugene, Oreg.) to generate the red fluorescence oxidation product, resorufin. The concentration of resorufin, which is determined by fluorometry, is proportional to the amount of active pegloticase present in the serum samples. The lower limit of detection established in previous studies has been determined to be 0.6 μg/mL.
Methods: In the MIRROR OL trial, MTX (15 mg/week) was given orally 4 weeks prior to the first pegloticase dose and continued weekly, in combination with pegloticase 8 mg given intravenously every 2 weeks, for a treatment duration of up to 52 weeks. Pre-infusion samples were collected to measure MTX-PGs 1 to 5 in red blood cells at day 1, week 4, 8, 22, 24 and 36. […] Pegloticase concentrations in serum was measured using a validated enzymatic/fluorescence assay. The limit of quantification is 0.6 μg/mL. Anti-pegloticase/PEG IgG antibodies (ADA) were measured using a validated enzyme linked immunosorbent assay (ELISA). The analysis of MTX Polyglutamates was conducted by Exagen. The impact of MTX on pegloticase PK was evaluated by two methods: (1) Comparing pegloticase exposures (median Cmax and Cmin across visits) with MTX from the MIRROR OL trial to the observed levels in historical monotherapy Phase 3 studies (C0405 and C0406) (Lipsky et al., Arthritis Res Ther 16(2), 2014; Sundy et al., JAMA 306(7), 2011). Overlaying observed pegloticase concentrations with MTX against the 90% prediction band of pegloticase concentrations following monotherapy based on the population PK model from the Phase 3 data (Yue et al., ASCPT. Atlanta, 2010).

[3] = test system: patients with refractory chronic gout; settings: cited from earlier work; for patients maintaining a response to pegloticase: another study
[4] = test system: subjects with refractory gout; settings: after doses of 4 to 12 mg; from 11.1±0.6 mg/dL; cited from earlier work
[5] = End of Pegloticase Infusions Visit

pegloticase
Patient Global Assessment of Gout, Change from Baseline, Mean (SD) ([1]; Day 1): 0.2 (1.85)
Patient Global Assessment of Gout, Change from Baseline, Median ([1]; Day 1): 0.0
Patient Global Assessment of Gout, Observed, Mean (SD) ([1]; Day 1): 5.8 (1.76)
Patient Global Assessment of Gout, Observed, Median ([1]; Day 1): 6.0
Physician Global Assessment of Gout, Change from Baseline, Mean (SD) ([1]; Day 1): −0.1 (2.35)
Physician Global Assessment of Gout, Change from Baseline, Median ([1]; Day 1): 0.0
Physician Global Assessment of Gout, Observed, Mean (SD) ([1]; Day 1): 6.0 (2.45)
Physician Global Assessment of Gout, Observed, Median ([1]; Day 1): 7.0
Patient Global Assessment of Gout, Change from Baseline, Mean (SD) ([1]; Early Termination Visit): 0.7 (2.89)
Patient Global Assessment of Gout, Change from Baseline, Median ([1]; Early Termination Visit): −1.0
Patient Global Assessment of Gout, Observed, Mean (SD) ([1]; Early Termination Visit): 5.7 (3.06)
Patient Global Assessment of Gout, Observed, Median ([1]; Early Termination Visit): 5.0
Physician Global Assessment of Gout, Change from Baseline, Mean (SD) ([1]; Early Termination Visit): −2.7 (2.08)
Physician Global Assessment of Gout, Change from Baseline, Median ([1]; Early Termination Visit): −2.0
Physician Global Assessment of Gout, Observed, Mean (SD) ([1]; Early Termination Visit): 3.7 (2.08)
Physician Global Assessment of Gout, Observed, Median ([1]; Early Termination Visit): 3.0
Patient Global Assessment of Gout, Change from Baseline, Mean (SD) [1, 5]: −4.0 (4.24)
Patient Global Assessment of Gout, Change from Baseline, Median [1, 5]: −4.0
Patient Global Assessment of Gout, Observed, Mean (SD) [1, 5]: 2.0 (2.83)
Patient Global Assessment of Gout, Observed, Median [1, 5]: 2.0
Physician Global Assessment of Gout, Change from Baseline, Mean (SD) [1, 5]: −7.0 (0.00)
Physician Global Assessment of Gout, Change from Baseline, Median [1, 5]: −7.0
Physician Global Assessment of Gout, Observed, Mean (SD) [1, 5]: 0.5 (0.71)
Physician Global Assessment of Gout, Observed, Median [1, 5]: 0.5
Patient Global Assessment of Gout, Change from Baseline, Mean (SD) ([1]; Week 14): −2.5 (2.77)
Patient Global Assessment of Gout, Change from Baseline, Median ([1]; Week 14): −2.5
Patient Global Assessment of Gout, Observed, Mean (SD) ([1]; Week 14): 3.1 (2.27)
Patient Global Assessment of Gout, Observed, Median ([1]; Week 14): 3.0
Physician Global Assessment of Gout, Change from Baseline, Mean (SD) ([1]; Week 14): −4.2 (2.22)
Physician Global Assessment of Gout, Change from Baseline, Median ([1]; Week 14): −5.0
Physician Global Assessment of Gout, Observed, Mean (SD) ([1]; Week 14): 1.9 (1.64)
Physician Global Assessment of Gout, Observed, Median ([1]; Week 14): 2.0
Patient Global Assessment of Gout, Change from Baseline, Mean (SD) ([1]; Week 24): −3.7 (3.23)
Patient Global Assessment of Gout, Change from Baseline, Median ([1]; Week 24): −3.0
Patient Global Assessment of Gout, Observed, Mean (SD) ([1]; Week 24): 2.0 (1.79)
Patient Global Assessment of Gout, Observed, Median ([1]; Week 24): 3.0
Physician Global Assessment of Gout, Change from Baseline, Mean (SD) ([1]; Week 24): −5.3 (2.10)
Physician Global Assessment of Gout, Change from Baseline, Median ([1]; Week 24): −6.0
Physician Global Assessment of Gout, Observed, Mean (SD) ([1]; Week 24): 0.8 (0.87)
Physician Global Assessment of Gout, Observed, Median ([1]; Week 24): 1.0
Patient Global Assessment of Gout, Change from Baseline, Mean (SD) ([1]; Week 36): −3.4 (2.92)
Patient Global Assessment of Gout, Change from Baseline, Median ([1]; Week 36): −4.0
Patient Global Assessment of Gout, Observed, Mean (SD) ([1]; Week 36): 2.1 (2.80)
Patient Global Assessment of Gout, Observed, Median ([1]; Week 36): 1.0
Physician Global Assessment of Gout, Change from Baseline, Mean (SD) ([1]; Week 36): −5.9 (2.03)
Physician Global Assessment of Gout, Change from Baseline, Median ([1]; Week 36): −6.0
Physician Global Assessment of Gout, Observed, Mean (SD) ([1]; Week 36): 0.7 (1.00)
Physician Global Assessment of Gout, Observed, Median ([1]; Week 36): 0.0
Patient Global Assessment of Gout, Change from Baseline, Mean (SD) ([1]; Week 52/ET): −4.3 (0.58)
Patient Global Assessment of Gout, Change from Baseline, Median ([1]; Week 52/ET): −4.0
Patient Global Assessment of Gout, Observed, Mean (SD) ([1]; Week 52/ET): 1.0 (1.00)
Patient Global Assessment of Gout, Observed, Median ([1]; Week 52/ET): 1.0
Physician Global Assessment of Gout, Change from Baseline, Mean (SD) ([1]; Week 52/ET): −7.3 (0.58)
Physician Global Assessment of Gout, Change from Baseline, Median ([1]; Week 52/ET): −7.0
Physician Global Assessment of Gout, Observed, Mean (SD) ([1]; Week 52/ET): 1.0 (0.00)
Physician Global Assessment of Gout, Observed, Median ([1]; Week 52/ET): 1.0
Cmax BQL, % ([2]; Quantitation Limit 0.6 μg/mL): 0%
Cmax BQL, n/N ([2]; Quantitation Limit 0.6 μg/mL): 0/14
Cmin BQL, % ([2]; Quantitation Limit 0.6 μg/mL): 36%
Cmin BQL, n/N ([2]; Quantitation Limit 0.6 μg/mL): 5/14
Cmax, Median (Q1, Q3) ([2]; serum, BQL: below 0.6 μg/mL): 2.11 (1.65, 2.59) μg/mL
Cmin, Median (Q1, Q3) ([2]; serum, BQL: below 0.6 μg/mL): 1.03 (BQL, 1.23) μg/mL
Non-responders ([3]; C0405 and C0406): 49/85
patients maintaining a response to pegloticase ([3]; antibody titer exceeding 1:2430 at any time during treatment, 7 of 65): 10.8%
patients maintaining a response to pegloticase ([3]; never had an antibody titer above 1:2430, 58/65): 89.2%
Responders (sUA <6 mg/dL for at least 80% of the time during month 6) ([3]; historical Phase 3 monotherapy trials C0405 and C0406, 36/85): 42%
response rate during Month 6 ([3]; pegloticase 8 mg every 2 weeks, phase 3 studies): 43%
proportion of responders during Month 6 ([3]; phase 3 studies): 43.5%
incidence of infusion-related reactions ([3]; pooled Phase 3, 8 mg biweekly dosing): 26%
incidence of infusion-related reactions ([3]; pooled Phase 3, 8 mg every-4-week dosing regimen): 40%
pegloticase-treated patients with IRs in whom loss of response (return to SUA >6 mg/dL) preceded the first IR ([3]; pooled Phase 3, 20/21): 95%
infusion reactions reported ([3]; pre-marketing controlled clinical trials, 8 mg every 2 weeks): 26%
anaphylaxis frequency ([3]; pre-marketing controlled clinical trials): 6.5%
participants with high antibody titers who maintained a response (serum urate <6 mg/dL) ([3]; second study): 1 of 52 participants
participants with high titers who developed IR ([3]; second study): 60%
patients who developed IRs ([3]; titers exceeding 1:2430, 31 of 52): 60%
patients with Cmin below quantitation limit ([3]; without MTX, 63/82): 77%
pegloticase overall Cmin, median ([3]; without MTX, historical monotherapy, BQL = below quantitation limit of 0.6 μg/mL): BQL
pegloticase Cmax, median ([3]; without MTX, historical monotherapy): 1.51 µg/mL
plasma urate concentration (pUAc) after dosing, mean±SD [4]: 1.0±0.5 mg/dL
